pIC50: −log10 of the molar value. Some results are limits rather than exact numbers.

For one assay, the system named is B16F10 melanoma cells. The assay is described as follows: MTT cell viability assay, B16F10. It counts as cell-based, murine. The settings on record: Mus musculus, B16-F10, 24 h exposure then 48 h. The protocol: B16F10 cells (ATCC) were cultured in Dulbecco's modified Eagle's media (DMEM, Life Technologies), supplemented with 10% (v/v) fetal bovine serum (FBS, Atlanta Biologicals) and 1% (v/v) penicillin-streptomycin (penstrep, Life Technologies). Cells were maintained at 37°C, 5% CO2. Confluent cells were removed with 0.05% (w/v) trypsin-EDTA (Life Technologies), seeded at 2 x 10^3 cells/100µL/well in 96-well plates, and grown overnight at 37°C, 5% CO2. The next day, cells were washed 2 times with PBS and incubated with free DOX or PVX-DOX corresponding to 0, 0.01, 0.05, 0.1, 0.5, 1, 5, or 10 µM DOX for 24 h, in triplicate. A PVX only control corresponded to the amount of PVX in the highest PVX-DOX sample. Following incubation, cells were washed 2 times to remove unbound DOX or particles. Fresh medium (100 µL) was added and cells were returned to the […] incubator for 48 h.
A general note: Tetrazolium assays rely on reduction of a dye to a coloured formazan, in cell work by metabolically active cells.

The subject of assay [1] is A2780 human ovarian cancer. The assay is described as follows: MTT cytotoxicity evaluation, A2780. It counts as cell-based. The protocol:
(§1) A2780, a gift from Dr. Analisa DiFeo (Case Western Reserve University) were cultured in Dulbecco's modified Eagle's media (DMEM, Life Technologies), supplemented with 10% (v/v) fetal bovine serum (FBS, Atlanta Biologicals) and 1% (v/v) penicillin-streptomycin (penstrep, Life Technologies). HeLa (ATCC) were cultured in minimum essential media (MEM, Life Technologies), supplemented with 10% (v/v) FBS, 1% (v/v) penstrep, and 1% (v/v) L-glutamine (Life Technologies). MDA-MB-231, a gift from Dr. Ruth Keri (Case Western Reserve University), were cultured in Roswell Park Memorial Institute (RPMI, Life Technologies) medium supplemented with 10% (v/v) FBS, 1% (v/v) penstrep, and 1% (v/v) L-glutamine. All cells were maintained at 37°C and 5% CO2.
(§2) Confluent cells were removed with 0.05% (w/v) trypsin-EDTA (Life Technologies), seeded at either 2 × 10^3 cells/100 µL/well (MDA-MB-231 and HeLa) or 5 × 10^3 cells/100 µL/well (A2780) in 96-well plates and grown overnight at 37°C, 5% CO2. The next day, cells were washed 2 times with PBS and incubated with free DOX, PVX-DOX, or PEG-PVX-DOX corresponding to 0, 0.01, 0.05, 0.1, 0.5, 1, 5, or 10 µM (A2780, MDA-MB-231) or 0, 0.1, 0.5, 1, 5, 10, 25, or 50 µM (HeLa) DOX for 24 h, in triplicate. A PVX only control corresponded to the amount of PVX in the highest PVX-DOX sample. Following incubation, cells were washed 2 times to remove unbound DOX or particles. […]

Assay [2] deals with MDA-MB-231 human breast cancer. The assay is described as follows: MTT cytotoxicity evaluation, MDA-MB-231. It counts as cell-based. To be noted: MDA-MB-231, 24 h exposure then 48 h, MTT assay. The protocol:
as §1, §2

The test system of assay [3] is HeLa human cervical cancer. The assay is described as follows: MTT cytotoxicity evaluation, HeLa. The settings on record: 24 h exposure then 48 h, MTT assay. The class given is cell-based. The protocol:
as §1, §2

A further assay deals with A2780 cells. Put plainly: tracking of free DOX and PVX-DOX in cells (fluorescence microscopy). The class given is cell-based, human. To be noted: 1.5 µM DOX, at 48 h. The procedure:
A2780 cells were grown to confluency and removed with 0.05% (w/v) trypsin-EDTA. Cells were seeded at 1 × 10^4 cells/500 µL/well on coverslips in untreated 24-well plates and grown overnight at 37°C, 5% CO2. The next day, cells were washed 3 times and incubated with free DOX or PVX-DOX (1.5 µM DOX) for 2, 4, 12, 24, or 48 h. Following incubation, cells were washed 3 times and fixed in DPBS (Corning) containing 5% (v/v) paraformaldehyde (Electron Microscopy Sciences) and 0.3% (v/v) glutaraldehyde (Polysciences) for 10 min at room temperature. Coverslips were mounted using Fluoroshield (Sigma). Slides were imaged on a Zeiss Axio Observer Z1 motorized FL inverted microscope. Fluorescence intensity was analysed as follows using ImageJ 1.47d. All images were identically processed prior to fluorescence intensity measurement. Nuclei were selected and analyzed for fluorescence intensity using the measure feature of ImageJ. For each sample, a minimum of 3 images was analyzed and at least 4 cells were analyzed per image.

The subject of the next assay is MDA-MB-231 tumors. Put plainly: MDA-MB-231 tumor-bearing athymic mouse model, intravenous treatment. The class given is in vivo, NCR nu/nu mice. The settings on record: 1 mg/kg DOX i.v. every 5 days. The procedure:
All experiments were conducted in accordance with Case Western Reserve University's Institutional Animal Care and Use Committee. Female NCR nu/nu mice (6 weeks old) were injected subcutaneously into the right flank with 2 × 10^6 MDA-MB-231 cells suspended in 100 µL of media and Matrigel (Corning) at a 1:1 ratio. When tumors reached 100-200 mm^3, a dosage of 1.0 mg/kg body weight DOX was injected intravenously (this dosage corresponds to 1.0 - 2.0 mg PVX depending on batches). Groups of 4 animals each were treated with PEG-PVX-DOX, free DOX, or PBS. The dosage was normalized to the DOX content. Treatments were performed every 5 days, and a total of 5 treatments was given.
Tumors were measured daily and total volume was calculated using the formula: v = (l × w^2)/2. Mice were euthanized following 25 days of treatment.

For `COc1cccc2c1C(=O)c1c(O)c3c(c(O)c1C2=O)C[C@@](O)(C(=O)CO)C[C@@H]3O[C@H]1C[C@H](N)[C@H](O)[C@H](C)O1` [DOX, doxorubicin], the pIC50 – broadly, the IC50 on a negative log10 scale, so that one unit is a factor of ten – in the assay on B16F10 melanoma cells is 6.55; in assay [1] (Homo sapiens, A2780, 24 h exposure then 48 h, MTT assay), 6.66; in assay [2], 6.89; in assay [3], 5.80. In addition, in assay [1] (A2780, MTT assay), the “cell killing effectiveness relative to PVX-DOX” value is on record as 4 times. The drug-induced apoptosis entry in the assay on A2780 cells is on record as “apparent”. Moreover, the “day post first treatment from which differences to PBS were statistically significant” value in the assay on MDA-MB-231 tumors (p<0.05) was above 22 days. Moreover, the “tumor volumes smaller than the PBS control” value with MDA-MB-231 tumors (at the end of the treatment, 5 injections) was 2.1 times.

These data come from EP3592343B1, “CANCER IMMUNOTHERAPY USING VIRUS PARTICLES” (Case Western Reserve University, priority 2017, dated 2018).
